Measurements published in US20060281689A1, “Method for modulating activity of HCV protease through use of a novel HCV protease inhibitor to reduce duration of treatment period” (Schering Corporation, priority 2005, published 2006).

Key:
hepatitis C virus [1] = experiment: Parallel group study in patients afflicted with hepatitis C virus, 14 days, mean viral load (HCV RNA); format: in vivo; conditions: either dose (200 mg or 400 mg three times a day orally) in combination with PEG-Intron 1.5 mcg/kg/week
Protocol: Preferably, in the practice of the invention, the concentration of HCV-RNA is quantitatively measured by research-based reverse transcriptase polymerase chain reaction (RT-PCR) assay well known to the skilled clinician. Specifically, the Hepatitis C virus (HCV) RNA is measured by extracting total RNA from plasma or serum samples and using an in-house real-time reverse transcriptase polymerase chain reaction (RT-PCR) assay. The amplification target is the 5′-untranslated region (UTR) of the HCV genome. An internal RNA control is added to each sample to assess the efficiency of RNA extraction. Appropriate negative and positive controls are added in each assay run. The assay method has been validated against the WHO International Standard for HCV. HCV RNA amount in a sample is reported as copies of HCV RNA per mL of sample and also as HCV IU per mL of sample. Results for sample at or above 100 copies of HCV RNA per mL are denoted as POS. On the other hand, ND stands for <100 copies of HCV RNA or <29 IU of HCV per mL of sample. […] With respect to quantifying HCV RNA with the rt-PCR methodology referred to herein, one (1) copy of HCV RNA equals 0.29 IU, such that 100 copies of HCV RNA per milliliter of plasma is 29 International Units per milliliter of plasma. […] HCV genotype is determined by sequencing the PCR amplified DNA fragment of the 5′-UTR of the HCV genome. […]

hepatitis C virus [2] = experiment: Model of viral dynamics modified with Total ε: theoretical effectiveness rate and viral load over a 48 week treatment period; design: species or system patients
From the text: The effectiveness of suppression of viral production through treatment in accordance with the methods of the present invention can be calculated through a combination pharmacokinetic and pharmacodynamic analysis with a modified version of the absorption and elimination model described in the art. See Powers K A. et al. (Seminars in Liver Disease, 23 Suppl. 1:13-8, 2003). The absorption and elimination model, which incorporates the Neumann et al. model of viral dynamics, calculates simulated changes in drug concentration and effectiveness of single drug treatment in Equations […], 6, and 7. See Powers K A. et al. (Seminars in Liver Disease, 2003, 23 Suppl. 1:13-8), and Neumann A U, Lam N P, Dahari H, et al. (Science 1998, 282: 103-107). […]
Equation 7 incorporates the effects of a delay between a drug binding to its receptor and beginning its biological action. […] Thus, for t>τ, [formula] the effectiveness rate, ε, of a drug at time, t, is calculated by Equation 7.
For the present invention, the Neumann et al. model of Equation 1 and the absorption and elimination model of Equations 5, 6, and 7, is modified to incorporate calculations for monitoring the effectiveness rate of suppressing viral production by multiple drug treatment through combination therapy with the HCV protease inhibitor and HCV agents including interferon, interferon pegylated, and/or ribavirin. The absorption and elimination model in Equations 5, 6, and 7 is modified by including an effectiveness rate of a combination therapy, Total ε, which is based upon combining the individual efficacy, ε, over time, t, as calculated by Equation 7, for each drug used in the combination therapy of the present invention. The effectiveness rate, Total ε, is calculated with the formula […], where ε(t)Pl is the effectiveness of a HCV protease inhibitor and where ε(t)Ag is the effectiveness of an HCV agent, both independently calculated by Equation 7. […]

## CC(C)(C)NC(=O)N[C@H](C(=O)N1CC2C([C@H]1C(=O)NC(CC1CCC1)C(=O)C(N)=O)C2(C)C)C(C)(C)C (some centres unmarked) [HCV protease inhibitor]
Hepatitis C virus [1]
  viral load in the second week of treatment: continued to decline
Hepatitis C virus [1]; compared with PEG-Intron alone
  decrease in mean viral load at the end of the first week of treatment: much steeper decrease in mean viral load
Hepatitis C virus [2]; 200 mg three times a day orally with PEG-Intron 1.5 mcg/kg/week subcutaneously, 48 weeks
  theoretical effectiveness rate, ε, over time, t: 0.989
Hepatitis C virus [2]; 200 mg three times a day orally with PEG-Intron 1.5 mcg/kg/week subcutaneously, theoretical calculations
  time of treatment until viral load is below 29 IU/ml plasma (100 copies per ml plasma): approximately 14 weeks
Hepatitis C virus [2]; 400 mg three times a day orally with PEG-Intron 1.5 mcg/kg/week subcutaneously, 48 weeks
  effectiveness rate, ε, over time, t: 0.997
